In PubChem BioAssay (NCI):
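Grown in 96-well plates, cells were treated for 48 hours with each compound at five concentrations. Insufficient inhibition: endpoint recorded as highest concentration tested. GI50: concentration for 50% inhibition of growth. TGI is the concentration that stops growth completely.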

What was measured:
Assay in all cases: inhibition of tumour cell growth, NCI panel, 48 h
A498 renal = test system: A498 renal
A549 NSCLC = test system: A549 NSCLC
ACHN renal = test system: ACHN renal
BT-549 breast = test system: BT-549 breast
CAKI-1 renal = test system: CAKI-1 renal
CCRF-CEM leukemia = test system: CCRF-CEM leukemia
COLO 205 colon = test system: COLO 205 colon
DU-145 prostate = test system: DU-145 prostate
EKVX NSCLC = test system: EKVX NSCLC
HCC-2998 colon = test system: HCC-2998 colon
HCT-116 colon = test system: HCT-116 colon
HCT-15 colon = test system: HCT-15 colon
HL-60(TB) leukemia = test system: HL-60(TB) leukemia
HOP-62 NSCLC = test system: HOP-62 NSCLC
HOP-92 NSCLC = test system: HOP-92 NSCLC
HS 578T breast = test system: HS 578T breast
HT29 colon = test system: HT29 colon
IGROV1 ovarian = test system: IGROV1 ovarian
K-562 leukemia = test system: K-562 leukemia
KM12 colon = test system: KM12 colon
LOX IMVI melanoma = test system: LOX IMVI melanoma
M14 melanoma = test system: M14 melanoma
MALME-3M melanoma = test system: MALME-3M melanoma
MCF7 breast = test system: MCF7 breast
MDA-MB-231 breast = test system: MDA-MB-231 breast
MDA-MB-435 = test system: MDA-MB-435
MOLT-4 leukemia = test system: MOLT-4 leukemia
NCI-H226 lung = test system: NCI-H226 lung
NCI-H23 lung = test system: NCI-H23 lung
NCI-H460 lung = test system: NCI-H460 lung
NCI-H522 lung = test system: NCI-H522 lung
NCI/ADR-RES ovarian = test system: NCI/ADR-RES ovarian
OVCAR-3 ovarian = test system: OVCAR-3 ovarian
OVCAR-4 ovarian = test system: OVCAR-4 ovarian
OVCAR-5 ovarian = test system: OVCAR-5 ovarian
OVCAR-8 ovarian = test system: OVCAR-8 ovarian
PC-3 prostate = test system: PC-3 prostate
RPMI-8226 leukemia = test system: RPMI-8226 leukemia
RXF 393 renal = test system: RXF 393 renal
SF-268 CNS = test system: SF-268 CNS
SF-295 CNS = test system: SF-295 CNS
SF-539 CNS = test system: SF-539 CNS
SK-MEL-2 melanoma = test system: SK-MEL-2 melanoma
SK-MEL-28 melanoma = test system: SK-MEL-28 melanoma
SK-MEL-5 melanoma = test system: SK-MEL-5 melanoma
SK-OV-3 ovarian = test system: SK-OV-3 ovarian
SN12C renal = test system: SN12C renal
SNB-19 CNS = test system: SNB-19 CNS
SNB-75 CNS = test system: SNB-75 CNS
SR leukemia = test system: SR leukemia
SW-620 colon = test system: SW-620 colon
T-47D breast = test system: T-47D breast
TK-10 renal = test system: TK-10 renal
U251 CNS = test system: U251 CNS
UACC-257 melanoma = test system: UACC-257 melanoma
UACC-62 melanoma = test system: UACC-62 melanoma
UO-31 renal = test system: UO-31 renal

SMILES: COc1ccc2[nH]c(O)c(/C=c3/cc4c(c(-c5ccc(F)c(OC)c5)n3)=Nc3ccccc3-4)c2c1
- GI50 (A498 renal): 4.42 µM
- TGI (A498 renal): 19.2 µM
- GI50 (A549 NSCLC): 4.37 µM
- TGI (A549 NSCLC): 19.3 µM
- GI50 (ACHN renal): 3.01 µM
- TGI (ACHN renal): 9.86 µM
- GI50 (BT-549 breast): 1.89 µM
- TGI (BT-549 breast): 3.91 µM
- GI50 (CAKI-1 renal): 18.2 µM
- TGI (CAKI-1 renal): 36.9 µM
- GI50 (CCRF-CEM leukemia): 2.13 µM
- TGI (CCRF-CEM leukemia): 9.88 µM
- GI50 (COLO 205 colon): 2.56 µM
- TGI (COLO 205 colon): 5.87 µM
- GI50 (DU-145 prostate): 4.11 µM
- TGI (DU-145 prostate): 32.6 µM
- GI50 (EKVX NSCLC): 8.71 µM
- TGI (EKVX NSCLC): 36 µM
- GI50 (HCC-2998 colon): 2.13 µM
- TGI (HCC-2998 colon): 4.62 µM
- GI50 (HCT-116 colon): 1.82 µM
- TGI (HCT-116 colon): 3.37 µM
- GI50 (HCT-15 colon): 2.36 µM
- TGI (HCT-15 colon): 5.63 µM
- GI50 (HL-60(TB) leukemia): 14.4 µM
- TGI (HL-60(TB) leukemia): 35.1 µM
- GI50 (HOP-62 NSCLC): 2.42 µM
- TGI (HOP-62 NSCLC): 4.88 µM
- GI50 (HOP-92 NSCLC): 1.5 µM
- TGI (HOP-92 NSCLC): 6.62 µM
- GI50 (HS 578T breast): 1.87 µM
- TGI (HS 578T breast): 5.04 µM
- GI50 (HT29 colon): 2.03 µM
- TGI (HT29 colon): 4 µM
- GI50 (IGROV1 ovarian): 4.41 µM
- TGI (IGROV1 ovarian): 17.6 µM
- GI50 (K-562 leukemia): 3.16 µM
- TGI (K-562 leukemia): 10.2 µM
- GI50 (KM12 colon): 2.58 µM
- TGI (KM12 colon): 7.3 µM
- GI50 (LOX IMVI melanoma): 1.72 µM
- TGI (LOX IMVI melanoma): 3.29 µM
- GI50 (M14 melanoma): 2 µM
- TGI (M14 melanoma): 4.15 µM
- GI50 (MALME-3M melanoma): 2.03 µM
- TGI (MALME-3M melanoma): 3.92 µM
- GI50 (MCF7 breast): 1.76 µM
- TGI (MCF7 breast): 4.44 µM
- GI50 (MDA-MB-231 breast): 1.47 µM
- TGI (MDA-MB-231 breast): 3.14 µM
- GI50 (MDA-MB-435): 2.39 µM
- TGI (MDA-MB-435): 6.01 µM
- GI50 (MOLT-4 leukemia): 2.3 µM
- TGI (MOLT-4 leukemia): 5.68 µM
- GI50 (NCI-H226 lung): 16.4 µM
- TGI (NCI-H226 lung): 33.1 µM
- GI50 (NCI-H23 lung): 4.68 µM
- TGI (NCI-H23 lung): 38.2 µM
- GI50 (NCI-H460 lung): 1.78 µM
- TGI (NCI-H460 lung): 3.41 µM
- GI50 (NCI-H522 lung): 1.81 µM
- TGI (NCI-H522 lung): 4.14 µM
- GI50 (NCI/ADR-RES ovarian): 2.56 µM
- TGI (NCI/ADR-RES ovarian): 11.2 µM
- GI50 (OVCAR-3 ovarian): 1.99 µM
- TGI (OVCAR-3 ovarian): 3.58 µM
- GI50 (OVCAR-4 ovarian): 3.53 µM
- TGI (OVCAR-4 ovarian): 16.3 µM
- GI50 (OVCAR-5 ovarian): 3.56 µM
- TGI (OVCAR-5 ovarian): 10.8 µM
- GI50 (OVCAR-8 ovarian): 3.22 µM
- TGI (OVCAR-8 ovarian): 11.8 µM
- GI50 (PC-3 prostate): 8.11 µM
- TGI (PC-3 prostate): 38.4 µM
- GI50 (RPMI-8226 leukemia): 2.04 µM
- TGI (RPMI-8226 leukemia): 5.53 µM
- GI50 (RXF 393 renal): 1.53 µM
- TGI (RXF 393 renal): 3.01 µM
- GI50 (SF-268 CNS): 3.68 µM
- TGI (SF-268 CNS): 18 µM
- GI50 (SF-295 CNS): 2.26 µM
- TGI (SF-295 CNS): 6.51 µM
- GI50 (SF-539 CNS): 1.86 µM
- TGI (SF-539 CNS): 3.37 µM
- GI50 (SK-MEL-2 melanoma): 2.23 µM
- TGI (SK-MEL-2 melanoma): 5.41 µM
- GI50 (SK-MEL-28 melanoma): 2.06 µM
- TGI (SK-MEL-28 melanoma): 4.51 µM
- GI50 (SK-MEL-5 melanoma): 3.07 µM
- TGI (SK-MEL-5 melanoma): 22 µM
- GI50 (SK-OV-3 ovarian): 11.3 µM
- TGI (SK-OV-3 ovarian): 26.2 µM
- GI50 (SN12C renal): 12.9 µM
- TGI (SN12C renal): 30.5 µM
- GI50 (SNB-19 CNS): 2.85 µM
- TGI (SNB-19 CNS): 11.6 µM
- GI50 (SNB-75 CNS): 1.56 µM
- TGI (SNB-75 CNS): 3.56 µM
- GI50 (SR leukemia): 1.86 µM
- TGI (SR leukemia): 6.96 µM
- GI50 (SW-620 colon): 1.77 µM
- TGI (SW-620 colon): 3.8 µM
- GI50 (T-47D breast): 1.85 µM
- TGI (T-47D breast): 3.78 µM
- GI50 (TK-10 renal): 2.91 µM
- TGI (TK-10 renal): 6.95 µM
- GI50 (U251 CNS): 1.7 µM
- TGI (U251 CNS): 3.21 µM
- GI50 (UACC-257 melanoma): 2.81 µM
- TGI (UACC-257 melanoma): 8.86 µM
- GI50 (UACC-62 melanoma): 1.7 µM
- TGI (UACC-62 melanoma): 3.16 µM
- GI50 (UO-31 renal): 3.86 µM
- TGI (UO-31 renal): 18.8 µM
